This is an account of results in patent US11220518B2, “Substituted n-pyrimidin-4-yl-3-amino-pyrrolo[3,4-c]pyrazoles as protein kinase C inhibitors” (PFIZER INC., priority 2007, dated 2022).

The assay concerns the target Protein Kinase C beta 2 (PKCβII) (Homo sapiens (Human), UniProt P05771). Description: Protein Kinase C beta 2 (PKCβII) coupled PK/LDH spectrophotometric kinase assay. In kind it is biochemical. Conditions: apparent Ki, ATP-competitive model (Morrison equation); 5 nM PKC, 0.1 mM ATP, 0.15 mM peptide, 30° C., pH 7.4; read-out: Ki app. As for the experimental part:
Protein Kinase C beta 2 (PKCβII) catalyzes the production of ADP from ATP that accompanies the phosphoryl transfer to the PKC Pseudosubstrate peptide (A→S, RFARKGSLRQKNV). This transfer is coupled to the oxidation of β-NADH through the activities of Pyruvate Kinase (PK) and Lactate Dehydrogenase (LDH). β-NADH conversion to NAD+ is monitored by the decrease in absorbance at 340 nm (e=6.22 cm^−1 mM^−1) using a Molecular Devices SPECTRA max PLUS spectrophotometer. […]
Steady-state kinetic parameters for the bi-bi kinase reaction were determined at saturating phospho-acceptor peptide substrate concentration (0.15 mM) by fitting initial velocity data to the Michaelis-Menten equation, v=Vmax[S]/(KM[S]) where v is the measured initial velocity, Vmax is the maximal enzyme velocity, [S] is the ATP substrate concentration, and KM is the Michealis constant for ATP. Enzyme turnover values (kcat) were calculated according to […], where [E] is the total enzyme concentration. Enzyme inhibition constants (apparent Ki values) were determined by fitting initial velocities at variable inhibitor concentrations to a model for ATP competitive inhibition based on the Morrison equation). […]

Protein Kinase C beta 2 (PKCβII), sequence (P05771 other isoform, or with tags, fused parts or gaps): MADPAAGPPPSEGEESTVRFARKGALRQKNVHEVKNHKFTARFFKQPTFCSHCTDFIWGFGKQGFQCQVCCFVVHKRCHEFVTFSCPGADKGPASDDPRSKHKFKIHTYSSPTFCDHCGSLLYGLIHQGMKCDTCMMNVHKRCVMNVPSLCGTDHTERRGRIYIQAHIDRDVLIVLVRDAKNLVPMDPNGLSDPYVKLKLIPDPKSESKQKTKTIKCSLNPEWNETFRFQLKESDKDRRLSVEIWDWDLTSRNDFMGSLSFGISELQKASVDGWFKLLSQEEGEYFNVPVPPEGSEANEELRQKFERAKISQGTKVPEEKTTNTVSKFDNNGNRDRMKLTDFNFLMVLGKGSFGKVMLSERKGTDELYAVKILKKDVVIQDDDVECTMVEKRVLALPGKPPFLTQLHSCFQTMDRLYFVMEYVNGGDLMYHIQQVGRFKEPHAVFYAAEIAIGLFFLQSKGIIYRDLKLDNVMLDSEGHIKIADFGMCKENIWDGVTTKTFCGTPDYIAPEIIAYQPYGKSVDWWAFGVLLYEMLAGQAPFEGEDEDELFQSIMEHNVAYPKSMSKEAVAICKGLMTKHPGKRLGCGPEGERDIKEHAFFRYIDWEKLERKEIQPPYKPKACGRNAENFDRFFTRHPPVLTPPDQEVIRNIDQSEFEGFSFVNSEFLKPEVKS

In the case of `COCc1ncc(F)c(Nc2n[nH]c3c2CN(C(=O)N2CC(CCO)N(C)C[C@@H]2C)C3(C)C)n1` (single isomer, unassigned) [Example N3], the Ki is 15.6 nM.

As for `CCOc1ncc(F)c(Nc2n[nH]c3c2CN(C(=O)N2C[C@@H](C)N(C)C[C@@H]2C)C3(C)C)n1` [Example K1, N-(2-ethoxy-5-fluoropyrimidin-4-yl)-6,6-dimethyl-5-{[(2S,5R)-2,4,5-trimethylpiperazin-1-yl]carbonyl}-1,4,5,6-tetrahydropyrrolo[3,4-c]pyrazol-3-amine], the Ki stood at 1.12 nM.
